Patent US20250230154A1, “COMPOUND HAVING SHP2 PROTEIN DEGRADING ACTIVITY, AND MEDICAL USES THEREOF” (UBIX THERAPEUTICS, INC., priority 2021, published 2025)

Target: T1, SHP2 protein (Homo sapiens, UniProt Q06124)
T1 sequence (Q06124 1-593): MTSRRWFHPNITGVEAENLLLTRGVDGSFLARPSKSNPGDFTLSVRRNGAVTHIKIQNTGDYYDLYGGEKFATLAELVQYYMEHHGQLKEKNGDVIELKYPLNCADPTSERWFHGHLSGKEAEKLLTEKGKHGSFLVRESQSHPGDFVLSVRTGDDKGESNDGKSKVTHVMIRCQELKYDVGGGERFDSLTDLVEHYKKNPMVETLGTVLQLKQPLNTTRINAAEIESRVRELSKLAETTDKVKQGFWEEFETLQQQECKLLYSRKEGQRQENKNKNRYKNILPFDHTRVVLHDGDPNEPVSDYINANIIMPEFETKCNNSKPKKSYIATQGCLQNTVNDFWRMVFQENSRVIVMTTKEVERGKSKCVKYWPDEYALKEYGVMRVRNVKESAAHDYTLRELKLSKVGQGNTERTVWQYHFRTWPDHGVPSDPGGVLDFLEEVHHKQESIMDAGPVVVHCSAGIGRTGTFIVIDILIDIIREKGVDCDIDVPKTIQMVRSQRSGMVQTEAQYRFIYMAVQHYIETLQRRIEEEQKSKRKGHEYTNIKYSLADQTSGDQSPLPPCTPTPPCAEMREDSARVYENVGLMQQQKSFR
Test: Measurement of SHP2 protein degradation in MV-4-11 cells (western blotting)
Format: cell-based
Design: endogenous in cells; host or cells: MV-4-11
Details: for SHP2 degradation (%) 10 nM / SHP2 degradation (%) 100 nM / SHP2 degradation (%) 1000 nM: MV-4-11 cells, 24 hours
Summary of the method: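 SHP2 protein levels were assessed by western blotting in MV-4-11 cells after a 24 hour compound treatment. Lysates were sonicated, centrifuged, normalized by BCA assay at 562 nm, run on Bis-tris 4-12% gels, transferred to NC membrane, probed with anti-SHPTP2 (70 kDa) and anti-GAPDH (37 kDa) antibodies, and detected on LI-COR Odyssey.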

SHP2 degradation (%) 10 nM [%] | SHP2 degradation (%) 100 nM [%] | SHP2 degradation (%) 1000 nM [%] | SHP2 protein degradation activity (in words) (comment on Table 4) | Structure (SMILES)
54.9 | 99.0 | – | – | Cc1ncsc1-c1ccc(CNC(=O)[C@@H]2C[C@@H](O)CN2C(=O)[C@@H](NC(=O)C2(F)CC2)C(C)(C)C)c(OCCCN2CCC(O)(CC(=O)Nc3cccc(Sc4cnc(N5CCC(C)(CN)CC5)cn4)c3Cl)CC2)c1 [Example 20]
29.0 | 80.5 | 94.5 | – | Cc1ncsc1-c1ccc(CNC(=O)[C@@H]2C[C@@H](O)CN2C(=O)[C@@H](NC(=O)C2(F)CC2)C(C)(C)C)c(OCCC2CCN(CCC(=O)Nc3cccc(Sc4cnc(N5CCC(C)(CN)CC5)cn4)c3Cl)CC2)c1 [Example 74, (2S,4R)—N-(2-(2-(1-(3-((3-((5-(4-(aminomethyl)-4-methylpiperidin-1-yl)pyrazin-2-yl)thio)-2-chlorophenyl)amino)-3-oxopropyl)piperidin-4-yl)ethoxy)-4-(4-methylthiazol-5-yl)benzyl)-1-((S)-2-(1-fluorocyclopropane-1-carboxamido)-3,3-dimethylbutanoyl)-4-hydroxypyrrolidine-2-carboxamide]
−2.0 | 3.0 | – | somewhat decreased | Cc1ncsc1-c1ccc(CNC(=O)[C@@H]2C[C@@H](O)CN2C(=O)[C@@H](NC(=O)C2(F)CC2)C(C)(C)C)c(OCCN2CCN(C(=O)C(C)(C)C(=O)Nc3cccc(Sc4cnc(N5CCC(C)(CN)CC5)cn4)c3Cl)CC2)c1 [Example 59, (2S,4R)—N-(2-(2-(4-(3-((3-((5-(4-(aminomethyl)-4-methylpiperidin-1-yl)pyrazin-2-yl)thio)-2-chlorophenyl)amino)-2,2-dimethyl-3-oxopropanoyl)piperazin-1-yl)ethoxy)-4-(4-methylthiazol-5-yl)benzyl)-1-((S)-2-(1-fluorocyclopropane-1-carboxamido)-3,3-dimethylbutanoyl)-4-hydroxypyrrolidine-2-carboxamide]
39.6 | 93.3 | 95.6 | – | Cc1ncsc1-c1ccc(CNC(=O)[C@@H]2C[C@@H](O)CN2C(=O)[C@@H](NC(=O)C2(F)CC2)C(C)(C)C)c(OCCCN2CCC(CC(=O)Nc3cccc(Sc4ncc(N5CCC(C)(N)CC5)nc4N)c3Cl)CC2)c1 [Example 9, (2S,4R)—N-(2-(3-(4-(2-((3-((3-amino-5-(4-amino-4-methylpiperidin-1-yl)pyrazin-2-yl)thio)-2-chlorophenyl)amino)-2-oxoethyl)piperidin-1-yl)propoxy)-4-(4-methylthiazol-5-yl)benzyl)-1-((S)-2-(1-fluorocyclopropane-1-carboxamido)-3,3-dimethylbutanoyl)-4-hydroxypyrrolidine-2-carboxamide]
90 | 96.5 | – | – | CC(=O)N[C@H](C(=O)N1C[C@H](O)C[C@H]1C(=O)NCc1ccc(-c2scnc2C)cc1OCC1CCN(C(=O)CC(=O)Nc2cccc(Sc3cnc(N4CCC(C)(CN)CC4)cn3)c2Cl)CC1)C(C)(C)C [Example 33, (2S,4R)-1-((S)-2-acetamido-3,3-dimethylbutanoyl)-N-(2-((1-(3-((3-((5-(4-(aminomethyl)-4-methylpiperidin-1-yl)pyrazin-2-yl)thio)-2-chlorophenyl)amino)-3-oxopropanoyl)piperidin-4-yl)methoxy)-4-(4-methylthiazol-5-yl)benzyl)-4-hydroxypyrrolidine-2-carboxamide]
14.4 | 59.2 | – | – | Cc1ncsc1-c1ccc(CNC(=O)[C@@H]2C[C@@H](O)CN2C(=O)[C@@H](NC(=O)C2(F)CC2)C(C)(C)C)c(OCCN2CCN(C(=O)CC(=O)Nc3cccc(Sc4cnc(N5CCC(C)(CN)CC5)cn4)c3Cl)C[C@@H]2C(=O)O)c1 [Example 70, (R)-4-(3-((3-((5-(4-(aminomethyl)-4-methylpiperidin-1-yl)pyrazin-2-yl)thio)-2-chlorophenyl)amino)-3-oxopropanoyl)-1-(2-(2-(((2S,4R)-1-((S)-2-(1-fluorocyclopropane-1-carboxamido)-3,3-dimethylbutanoyl)-4-hydroxypyrrolidine-2-carboxamido)methyl)-5-(4-methylthiazol-5-yl)phenoxy)ethyl)piperazine-2-carboxylic Acid]
45.9 | 96.6 | – | – | Cc1ncsc1-c1ccc(CNC(=O)[C@@H]2C[C@@H](O)CN2C(=O)[C@@H](NC(=O)C2(F)CC2)C(C)(C)C)c(OCCCN2CCN(C(=O)CC(=O)Nc3cccc(Sc4cnc(N5CCC(C)(CN)CC5)cn4)c3Cl)[C@@H](C)C2)c1 [Example 64, (2S,4R)—N-(2-(3-((S)-4-(3-((3-((5-(4-(aminomethyl)-4-methylpiperidin-1-yl)pyrazin-2-yl)thio)-2-chlorophenyl)amino)-3-oxopropanoyl)-3-methylpiperazin-1-yl)propoxy)-4-(4-methylthiazol-5-yl)benzyl)-1-((S)-2-(1-fluorocyclopropane-1-carboxamido)-3,3-dimethylbutanoyl)-4-hydroxypyrrolidine-2-carboxamide]
33.7 | 90.9 | 95.0 | – | Cc1ncsc1-c1ccc(CNC(=O)[C@@H]2C[C@@H](O)CN2C(=O)[C@@H](NC(=O)C2(F)CC2)C(C)(C)C)c(OCCCN2CCC(CC(=O)Nc3cccc(Sc4ncc(N5CCC(C)(CN)CC5)nc4N)c3Cl)CC2)c1 [Example 10, (2S,4R)—N-(2-(3-(4-(2-((3-((3-amino-5-(4-(aminomethyl)-4-methylpiperidin-1-yl)pyrazin-2-yl)thio)-2-chlorophenyl)amino)-2-oxoethyl)piperidin-1-yl)propoxy)-4-(4-methylthiazol-5-yl)benzyl)-1-((S)-2-(1-fluorocyclopropane-1-carboxamido)-3,3-dimethylbutanoyl)-4-hydroxypyrrolidine-2-carboxamide]
90.5 | 97 | – | – | Cc1ncsc1-c1ccc(CNC(=O)[C@@H]2C[C@@H](O)CN2C(=O)[C@@H](NC(=O)C2(F)CC2)C(C)(C)C)c(OCCN2CCN(C(=O)CC(=O)Nc3cccc(Sc4cnc(N5CCC(C)(CN)CC5)cn4)c3Cl)[C@@H](C)C2)c1 [Example 63, (2S,4R)—N-(2-(2-((S)-4-(3-((3-((5-(4-(aminomethyl)-4-methylpiperidin-1-yl)pyrazin-2-yl)thio)-2-chlorophenyl)amino)-3-oxopropanoyl)-3-methylpiperazin-1-yl)ethoxy)-4-(4-methylthiazol-5-yl)benzyl)-1-((S)-2-(1-fluorocyclopropane-1-carboxamido)-3,3-dimethylbutanoyl)-4-hydroxypyrrolidine-2-carboxamide]
4 | 95 | 97 | – | Cc1ncsc1-c1ccc(CNC(=O)[C@@H]2C[C@@H](O)CN2C(=O)[C@@H](NC(=O)C2(F)CC2)C(C)(C)C)c(OCCNC(=O)c2cnc(N3CCC(CCCC(=O)Nc4cccc(Sc5cnc(N6CCC(C)(CN)CC6)cn5)c4Cl)CC3)nc2)c1 [Example 89, 2-(4-(4-((3-((5-(4-(aminomethyl)-4-methylpiperidin-1-yl)pyrazin-2-yl)thio)-2-chlorophenyl)amino)-4-oxobutyl)piperidin-1-yl)-N-(2-(2-(((2S,4R)-1-((S)-2-(1-fluorocyclopropane-1-carboxamido)-3,3-dimethylbutanoyl)-4-hydroxypyrrolidine-2-carboxamido)methyl)-5-(4-methylthiazol-5-yl)phenoxy)ethyl)pyrimidine-5-carboxamide]
20 | 81.9 | – | – | Cc1ncsc1-c1ccc(CNC(=O)[C@@H]2C[C@@H](O)CN2C(=O)[C@@H](NC(=O)C2(F)CC2)C(C)(C)C)c(OCCN2CCN(C(=O)CC(=O)Nc3cccc(Sc4cnc(N5CCC(C)(CN)CC5)cn4)c3Cl)C[C@H]2C(=O)O)c1 [Example 69, (S)-4-(3-((3-((5-(4-(aminomethyl)-4-methylpiperidin-1-yl)pyrazin-2-yl)thio)-2-chlorophenyl)amino)-3-oxopropanoyl)-1-(2-(2-(((2S,4R)-1-((S)-2-(1-fluorocyclopropane-1-carboxamido)-3,3-dimethylbutanoyl)-4-hydroxypyrrolidine-2-carboxamido)methyl)-5-(4-methylthiazol-5-yl)phenoxy)ethyl)piperazine-2-carboxylic Acid]
80.5 | 89.5 | 90.5 | – | Cc1ncsc1-c1ccc(CNC(=O)[C@@H]2C[C@@H](O)CN2C(=O)[C@@H](NC(=O)C2(F)CC2)C(C)(C)C)c(OCCC2CCN(C(=O)CC(=O)Nc3cccc(Sc4ncc(N5CCC(C)(CN)CC5)nc4N)c3Cl)CC2)c1 [Example 37, (2S,4R)—N-(2-(2-(1-(3-((3-((3-amino-5-(4-(aminomethyl)-4-methylpiperidin-1-yl)pyrazin-2-yl)thio)-2-chlorophenyl)amino)-3-oxopropanoyl)piperidin-4-yl)ethoxy)-4-(4-methylthiazol-5-yl)benzyl)-1-((S)-2-(1-fluorocyclopropane-1-carboxamido)-3,3-dimethylbutanoyl)-4-hydroxypyrrolidine-2-carboxamide]
